{"source": "patent US20130203830A1", "about": "“Compounds for Prevention of Cell Injury” (SULFATEQ B.V., priority 2010, published 2013)", "key": {"DDT-1 cells [1]": {"tested_on": "DDT-1 cells", "assay": "Survival of DDT-1 cells after hypothermia (MTS assay)", "assay_type": "cell-based, hamster", "details": "3° C.; for resistance / survival of DDT-1 cells in hypothermia: 24 h, ketanserine 400 ng/ml and 10 μg/ml, fluoxetine 0.005 μM 15 min before, CBS siRNA", "experimental": "Cell lines used included NRK (normal rat kidney cells), DDT-1 (hamster ductus deferens muscle cells) and A7R5 (rat vascular smooth muscle cells) cultured in DMEM (Gibco, 41966, UK) and SMAC (rat smooth muscle aortic cells) and THMC (transformed human mesangial cell) cultured in DMEM/F12 (Gibco, E12-719F). All media were supplied with 10% (vol/vol) fetal calf serum and 1% penicillin-streptomycin and cultured at 37° C. in 5% CO2 in 25 cm^2 or 75 cm^2 flasks. For hypothermia experiments, cells were plated in 6 or 96 wells plates and grown to confluence. […] Cell survival was measured by counting of trypan blue stained cells or MTS assay, which measures the number of viable cells. For the latter, 20 μl of MTS solution was added to each well and cells were subsequently placed in the incubator at 37° C. in 5% CO2 for 3 hr before assessing the cell survival by measuring absorption using a microplate reader at 490 nm.\n(§1) MTS assay was performed to investigate cell survival after blocking serotonin transporter and hypothermic treatment.\nParachlorophenyl-alanine (PCPA; Sigma, C6506-5G) was dissolved in warmed, acidified (pH 6.8) DDT-1 medium and vortexed for 5 min to a final concentration of 1.25 μM. Other concentrations were made from this stock solution. Control experiments were performed with a similar solution without PCPA. Anhydrous creatine (Sigma C4255-25G, USA) was dissolved in cell medium and added to wells to exclude the effect of this component. The treatment continued for 4 days until the concentration of indoleamines inside the cells reached half the baseline value. The cells were placed at 3° C., and MTS assay was performed after 24 h."}, "DDT-1 cells [2]": {"tested_on": "DDT-1 cells", "assay": "Indoleamine content of DDT-1 cells (Ehrlich reagent)", "assay_type": "cell-based, hamster", "details": "4 days of pretreatment, n=8", "experimental": "Ehrlich's reagent was used to quantify the cellular amount of indoles. Qualitative analysis of cellular indoles in cell culture medium at 37° C. and 3° C. was conducted after extraction according to Happold and Hoyle. Five ml of medium was shaken vigorously with 2 ml of xylene. Next, 1 ml of Ehrlich's reagent is applied to the surface of the mixture. Redistribution of xylene through the Ehrlich's reagent induces formation of the rosindole body, a red ring appearing at the lower surface of the xylene layer indicating the presence of indoleamides. The change in indole concentration in DDT-1 cells was measured after washing the cells with PBS, centrifugation (1000 rpm, 5 min) and removal of supernatant. Ehrlich reagent (200 μl) was added to each tube. After 3 min of vortexing, tubes were left for 3 h at 60° C. After centrifugation (1000 rpm, 5 min), color intensity was spectrophotometrically measured at 625 nm. Calibration experiments were carried out using 5-HT (0.025-0.5 mM), which rendered a linear regression with a correlation coefficient (R2) of 0.9996 (data not shown). To verify the accuracy of the Ehrlich reagent experiments automated mass spectrometric analysis was performed on all the samples according to the method set up by Ido P. Kema. […]"}, "SMAC cells [3]": {"tested_on": "SMAC cells", "assay": "H2S production in SMAC cells at 3° C. (methylene blue, supernatant)", "assay_type": "cell-based, rat", "details": "SMAC cells incubated at 3° C. for 24 hour", "experimental": "(§2) Methylene blue method for H2S detection was applied to quantitatively measure the H2S production. Cells were washed with PBS, scraped and centrifuged for 60 sec at 1000 rpm. After removal of the supernatant, zinc acetate 1% in water (200 μl) was added to the cell sediments and the cells were disrupted by small glass beads and vortexed for 20 seconds. Diamine-ferric solution was prepared by mixing 100 μl of a 400 mg N,N-dimethyl-p-phenylenediamine dihydrochloride dissolved in 10 ml 6M HCl and 100 μl of 600 mg ferric chloride in 10 ml 6M HCl. Two hundred μl of this mixture was added to the cell suspension and after an incubation time of 30 min at 37° C. and centrifugation, the amount of methylene blue formed in the supernatant was measured at a wavelength of 670 nm. To measure H2S content of supernatant, the same procedure was repeated for the cell free medium of cells incubated at both 37° C. and 3° C. Blanks were made following the same procedure without cells or using fresh medium. The concentration of H2S was calculated by extrapolation using a standard curve obtained from different concentrations of Methylene blue and spectrophotometric measurement at a wavelength of 670 nm. The amount of H2S present was calculated on the basis that every mole of methylene blue formed in this reaction contains 32 g (1 mole) of captured sulfur.\nMethylene blue method for H2S detection was applied to quantitatively examine the H2S present in cell supernatant at 0 and 24 hr after hypothermic treatment at 3° C."}, "SMAC cells [4]": {"tested_on": "SMAC cells", "assay": "Survival of SMAC cells after hypothermia (MTS assay / cell counting)", "assay_type": "cell-based, rat", "details": "for effect on the protective effect of serotonin on hypothermic SMAC cells: 24 h, 3° C., ketanserine 400 ng/ml and 10 μg/ml, fluoxetine 0.005 μM, CBS siRNA", "experimental": "Cell lines used included NRK (normal rat kidney cells), DDT-1 (hamster ductus deferens muscle cells) and A7R5 (rat vascular smooth muscle cells) cultured in DMEM (Gibco, 41966, UK) and SMAC (rat smooth muscle aortic cells) and THMC (transformed human mesangial cell) cultured in DMEM/F12 (Gibco, E12-719F). All media were supplied with 10% (vol/vol) fetal calf serum and 1% penicillin-streptomycin and cultured at 37° C. in 5% CO2 in 25 cm^2 or 75 cm^2 flasks. For hypothermia experiments, cells were plated in 6 or 96 wells plates and grown to confluence. Thereupon, cells were placed at 3° C. for up to 24 hours. Cell survival was measured by counting of trypan blue stained cells or MTS assay, which measures the number of viable cells. For the latter, 20 μl of MTS solution was added to each well and cells were subsequently placed in the incubator at 37° C. in 5% CO2 for 3 hr before assessing the cell survival by measuring absorption using a microplate reader at 490 nm.\nas §1"}, "DDT-1 cells [5]": {"tested_on": "DDT-1 cells", "assay": "H2S content of DDT-1 cells (methylene blue method)", "assay_type": "cell-based, hamster", "details": "hypothermia, at 24 h", "experimental": "as §2"}, "CBS [6]": {"molecular_target": "T1, CBS (Homo sapiens, UniProt P35520)", "T1 sequence (P35520 1-551)": "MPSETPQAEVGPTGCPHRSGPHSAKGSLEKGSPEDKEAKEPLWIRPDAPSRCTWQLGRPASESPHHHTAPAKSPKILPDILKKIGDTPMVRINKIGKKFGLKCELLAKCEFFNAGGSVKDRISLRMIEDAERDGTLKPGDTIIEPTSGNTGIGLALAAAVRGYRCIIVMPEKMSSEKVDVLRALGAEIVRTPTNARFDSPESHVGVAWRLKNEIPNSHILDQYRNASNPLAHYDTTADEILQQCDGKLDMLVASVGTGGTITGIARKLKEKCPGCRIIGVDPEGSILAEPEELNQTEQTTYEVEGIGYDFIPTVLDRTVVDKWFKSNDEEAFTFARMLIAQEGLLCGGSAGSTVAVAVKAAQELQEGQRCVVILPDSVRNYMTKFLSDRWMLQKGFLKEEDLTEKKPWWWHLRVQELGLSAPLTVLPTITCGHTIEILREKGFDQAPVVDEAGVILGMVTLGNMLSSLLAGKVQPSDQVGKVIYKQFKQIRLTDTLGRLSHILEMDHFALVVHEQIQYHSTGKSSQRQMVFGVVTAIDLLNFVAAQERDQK", "details": "binding to CBS; cited from earlier work"}, "CBS [7]": {"tested_on": "CBS", "assay": "CBS expression in normothermic and hypothermic rat tissue (immunostaining)", "details": "liver, pancreas, lung, kidney, heart; 3° C., 24 hr", "text": "Two rats (rattus norvegicus) were sacrificed and blood was taken out. The tissues were flushed by either PBS as control or PBS plus dopamine. Liver, pancreas, lung, kidney and heart were harvested. […] Tissues were fixed after being taken out of cold room. The tissues were later embedded in Paraffin, cut into 5 μm sections and stained with CBS antibody."}, "male Wistar rats": {"tested_on": "male Wistar rats", "assay": "In vivo protection from hypothermic liver damage (FABP1 expression)", "set-up": "species or system rat", "details": "rats cooled to 15° C. for 3 hr and rewarmed to 37° C.; compared to non-cooled control", "experimental": "(§3) Three groups of male Wistar rats (350-400 gr) were investigated: cooled rats either anesthetized with propofol or ketamine (n=6 each); a non-cooled control group briefly anesthetized with isofluran was sacrificed at 37° C. (n=3). After anesthesia with isofluran, the trachea was intubated with a […] cuffed tube and mechanical ventilation was started with air. A 5F central venous catheter was introduced in the internal jugular vein for blood sampling, hydration and administration of the anesthetic. A catheter was inserted in the common carotid artery for continuous monitoring of systemic arterial pressure and for blood gas analysis. Cardiovascular and oxygen saturation monitoring was performed during the entire procedure. After preparation, isoflurane was stopped and anesthesia was maintained with either propofol-Lipro (20 mg/m; Braun, Melsungen, Duitsland) at 2 ml/h or ketamine 0.6 ml/hr for 1 hr. Cooling of the animals was accomplished by an external cooling blanket and ice packs. […] Rats were kept at this temperature for 3 hr, followed by rewarming to 37° C. in about 1 hr using a heating blanket and warm air. The rats were then kept at 37° C. for another hr, followed by sacrification by exsanguination. Blood sampling was performed at the end of the preparation period and every hr after the body temperature reached 15° C. […]"}, "CBS [8]": {"tested_on": "CBS", "assay": "CBS expression in liver of cooled and rewarmed rats", "assay_type": "in vivo, rat", "details": "rats cooled to 15° C. for 3 hr and rewarmed; compared to controls", "experimental": "as §3, with “exsanguination.” for “exsanguination. Blood sampling was performed at the end of the preparation period and every hr after the body temperature reached 15° C.”\nCBS (cystathionine betasynthase) expression was also measured as the one of the main enzymes producing H2S in the liver."}, "[9]": {"assay": "Serum H2S concentration in rats (methylene blue method)", "assay_type": "in vivo, rat", "details": "throughout cooling and rewarming procedure, compared to control"}}, "note": "“Also recorded” adds a separate entry of the source."}
{"smiles": "N[C@@H](Cc1ccc(Cl)cc1)C(=O)O", "note": "(racemic) [PCPA, parachlorophenylalanine]", "values": [{"measurement": "DDT-1 survival following hypothermia after PCPA pretreatment", "setting": "DDT-1 cells [1]; 48 hr", "value": "concentration-dependently decreased; also recorded: blocked"}, {"measurement": "decrease in indoleamine content of the cells", "setting": "DDT-1 cells [2]", "value": "50±10", "unit": "%"}]}
{"smiles": "NCC(CC(=O)O)c1ccc(Cl)cc1", "note": "(racemic) [baclofen, (RS)-4-amino-3-(4-chlorophenyl)butanoic acid]", "values": [{"measurement": "H2S production", "setting": "SMAC cells [3]", "value": "increased H2S production"}]}
{"smiles": "CN(CC(=O)O)C(=N)N.O=S(=O)(O)O", "note": "[Creatine sulfate]", "values": [{"measurement": "protection against hypothermic cell death / reduction in number of cells", "setting": "SMAC cells [4]; SMAC cells, 24 h at 3° C., substance added 15 min before hypothermia", "value": "did not show any protective effects"}]}
{"smiles": "CNCCC(Oc1ccc(C(F)(F)F)cc1)c1ccccc1", "note": "(stereo not drawn) [Fluoxetine]", "values": [{"measurement": "effect on the protective effect of serotonin on hypothermic SMAC cells", "setting": "SMAC cells [4]", "value": "complete annihilation of the protective effect of serotonin"}, {"measurement": "resistance / survival of DDT-1 cells in hypothermia", "setting": "DDT-1 cells [1]", "value": "death of more than half of these cells"}, {"measurement": "H2S concentration inside DDT-1 cells", "setting": "DDT-1 cells [5]", "value": "lower concentration of H2S"}]}
{"smiles": "O=C(c1ccc(F)cc1)C1CCN(CCn2c(=O)[nH]c3ccccc3c2=O)CC1", "note": "[Ketanserine]", "values": [{"measurement": "effect on the protective effect of serotonin on hypothermic SMAC cells", "setting": "SMAC cells [4]", "value": "nor did it affect the protective effect of serotonin"}, {"measurement": "resistance / survival of DDT-1 cells in hypothermia", "setting": "DDT-1 cells [1]", "value": "did not affect the resistance"}]}
{"smiles": "Cc1ncc(COP(=O)(O)O)c(C=O)c1O", "note": "[PLP, Pyridoxal 5-Phosphate]", "values": [{"measurement": "free energy of binding reported for PLP", "setting": "CBS [6]", "value": -4.81, "unit": "kcal/mol"}]}
{"smiles": "NCCc1ccc(O)c(O)c1", "note": "[dopamine, 2-(3,4-dihydroxyfenyl)ethylamine]", "values": [{"measurement": "CBS expression in hypothermic rat tissue", "setting": "CBS [7]", "value": "increased expression; also recorded: upregulation of CBS"}, {"measurement": "H2S production", "setting": "SMAC cells [3]", "value": "increased H2S production"}]}
{"smiles": "NCCc1c[nH]cn1", "note": "[histamine, 4-(2′-aminoethyl)-imidazol]", "values": [{"measurement": "H2S production", "setting": "SMAC cells [3]", "value": "increased H2S production"}]}
{"smiles": "CNC1(c2ccccc2Cl)CCCCC1=O", "note": "(stereo not drawn) [ketamine, reference compound]", "values": [{"measurement": "liver damage, FABP1 expression in liver", "setting": "male Wistar rats", "value": "decreased expression of FABP1"}, {"measurement": "CBS expression in liver", "setting": "CBS [8]", "value": "significantly lowered"}, {"measurement": "Serum H2S concentration", "setting": "[9]", "value": "decreased"}]}
{"smiles": "COc1ccc2[nH]cc(CCNC(C)=O)c2c1", "note": "[melatonin, N-[2-(5-methoxy-1H-indol-3-yl)ethyl]acetamide]", "values": [{"measurement": "H2S production", "setting": "SMAC cells [3]", "value": "increased H2S production"}]}
{"smiles": "CC(C)c1cccc(C(C)C)c1O", "note": "[propofol, 2,6-diisopropylfenol]", "values": [{"measurement": "H2S production", "setting": "SMAC cells [3]", "value": "increased H2S production"}, {"measurement": "liver damage, FABP1 expression in liver", "setting": "male Wistar rats", "value": "protects liver tissue against in vivo hypothermia"}, {"measurement": "CBS expression in liver", "setting": "CBS [8]", "value": "induces expression of cystathionine beta synthase; also recorded: increased the expression of CBS"}, {"measurement": "Serum H2S concentration", "setting": "[9]", "value": "increased"}]}
